The test system of series [1] is mitochondrial ROS. In words: Mitochondrial ROS in cardiomyoblasts. As to conditions: compared with DOX.
Series [2] has as its system 4T1 mouse breast cancer cells. Briefly: LDH release cytotoxicity assay in 4T1 cells. The format is cell-based. As to conditions: 10 or 20 μM, 24 or 48 h, other than the lowest dose and shortest time. An excerpt: FIG. 8. Cytotoxicity of DOX and prodrugs in 4T1 mouse breast cancer cells.
DOX is a known cytotoxic agent used against 4T1 triple-negative breast cancer cells grown in culture or injected orthotopically into mouse mammary fat pads to initiate the development of tumors.^52,53 As an initial test to see if c1 could retain the cytotoxic properties of DOX toward tumor-forming 4T1 cells, we conducted LDH assays to assess cytotoxicity of DOX, c1 and c2 treatments.
On the technique in general: LDH in the medium is a marker of cell lysis.

Series [3] deals with Nrf2. Briefly: Nrf2 and HO-1 immunoblots in H9C2 cells. The settings on record: H9C2, relative to DMSO vehicle. The format is cell-based, rat. The source says:
The bar graphs below represent the mean±SEM. Results were statistically different between c1 and DOX in both cases (p=0.002 and p=0.019), and more marginally so between c1 and DMSO (p=0.011 and p.=0.025), for Nrf2 and HO-1, respectively.
In general terms: A western blot detects proteins with antibodies after separation by electrophoresis.

The nature of series [4]: Methylene blue assay of H2S release. The format is physicochemical. As to conditions: for H2S released: c1 40 μM. The method, then:
FIG. 3. Methylene blue assay depicting the time-dependent release of H2S from c1 (40 μM) while in the presence of H2O2 (40 μM) and carbonic anhydrase (CA). Plotted as the mean±SEM from three independent experiments. Data were collected in the presence (circles) or absence (squares) of H2O2.
H2S release from c1. We confirmed the time-dependent liberation of H2S using a methylene blue assay^46 and measuring the resulting absorbance at 670 nm after c1 exposure to H2O2 (FIG. 3, circle). Using a calibration curve generated with Na2S, we determined that c1 (40 μM) was able to release more than 16 μM H2S while in the presence of both H2O2 ([…]) and carbonic anhydrase (CA). […] As a control, the same assay was also run in the absence of CA (data not shown). Under these conditions, c1 exposure to H2O2 yielded small amounts of H2S ([…]). This is presumably due to isocyanate formation and the direct release of H2S from the breakdown of 4.
With carbonic anhydrase: Six separate vials were each filled with 150 μL of freshly degassed PBS (pH 7.4) containing Zn(OAc)2 (2 mM), carbonic anhydrase (0.1 mg/mL), and DOX (80 μM). Next, 150 μL of Na2S stock solution in freshly degassed PBS (pH 7.4), and at differing concentrations (6.25, 12.5, 25.0, 50.0, 100 and 200.0 μM), was added to each vial to give a final volume of 300 μL and a final concentration of 3.125, 6.25, 12.5, 25.0, 50.0, and 100.0 µM Na2S. […] The MB solution was transferred to a 1.0 mL UV cuvette and the absorbance at 670 nm was recorded.
Without carbonic anhydrase: Six separate vials were each filled with 150 μL of freshly degassed PBS (pH 7.4) containing Zn(OAc)2 (2 mM) and DOX (80 μM). […] The MB solution was transferred to a 1.0 mL UV cuvette and the absorbance at 670 nm was recorded. […]
With carbonic anhydrase: To a 20 mL scintillation vial containing 9770 μL of freshly degassed PBS (pH 7.4) was added stock solutions of carbonic anhydrase (50 μL), H2O2 (40 μL), Zn(OAc)2 (100 μL), and c1 (or c2) (40 μL). […] After reacting for 30 min in the dark, absorbance measurements were recorded at 670 nm. […]

Entries after “also recorded” stand apart in the source; their conditions may differ.

Consider `COc1cccc2c1C(=O)c1c(O)c3c(c(O)c1C2=O)C[C@@](O)(C(=O)CO)C[C@@H]3O[C@H]1C[C@H](NC(=S)OCc2ccc(B3OC(C)(C)C(C)(C)O3)cc2)[C@H](O)[C@H](C)O1` [c1], for which the “mitochondrial ROS levels” value in series [1] is listed as “lower levels of mitochondrial ROS”. In addition, in series [2], the “cytotoxicity (LDH release)” value is “comparable, sometimes less and sometimes more, toxicity relative to DOX”. Further, in series [3], the “HO-1 expression (immunoblot)” value was “largely preserved Nrf2 activation and HO-1 expression; also recorded: only moderately suppressive”; the “Nrf2 activation (immunoblot)” value was “largely preserved Nrf2 activation and HO-1 expression; also recorded: only moderately suppressive”. Further, the “share of H2S production via COS hydrolysis facilitated by CA” value in series [4] is reported as ~ 70%. Besides, in series [4] (absence of peroxides), the H2S released result is recorded as “negligible amounts of H2S”. Also, the H2S released entry in series [4] (in presence of H2O2 and carbonic anhydrase) is listed as “more than 16 μM”.

The values are drawn from patent publication US20260256922A1, “PRODRUGS USEFUL FOR REDUCING ANTHRACYCLINE CARDIOTOXICITY” (WAKE FOREST UNIVERSITY HEALTH SCIENCES, priority 2022, published 2026).
